{
  "source": "patent US20240287089A1",
  "about": "“Preparation and Uses of 7-Azaindenoisoquinolines” (Purdue Research Foundation, priority 0001, published 2024)",
  "key": {"[1]": {"system": "MYC mRNA in MCF-7 breast cancer cells", "assay": "qRT-PCR of MYC mRNA", "type": "cell-based", "conditions": "MCF-7, 1.0 μM, 6 h", "method": "Quantitative Reverse Transcriptase PCR (qRT-PCR). MCF-7 cells were grown and treated in 12-well tissue culture plates until collection. Total RNA was extracted using TRIzol reagent (15596018, Life Technologies). Purified RNA was dissolved in DEPC water and quantified. 1 μg purified RNA per sample was converted to cDNA using qScript cDNA SuperMix (84034, Quantabio) according to manufacturer's instruction. Real-time PCR reagents were made for each sample by mixing 1 μL synthesized cDNA, 3 μL PCR-grade water, 5 μL SYBR Green reagent (A25742, Applied Biosystem), and 0.25 μL each primer for Myc and GAPDH. Reactions were set up in triplicate for each target of each sample. Real-time PCR was conducted in 96-well PCR plates with a QuantStudio 6 Flex Real-Time PCR System (Life Technologies). The cycling condition was 95° C. for 5 min, followed by 40 cycles at 95° C. for 15 s, 60° C. for 15 s, and 72° C. for 15 s. The relative Myc expression was calculated using the 2^−ΔΔCt method by normalizing against GAPDH as the endogenous control."}, "[2]": {"conditions": "mouse, 1 μM", "experimental": "Analysis of Plasma Protein Binding and Stability in Human and Mouse Blood Plasma by Equilibrium Dialysis. Frozen plasma (stored at −80° C.) was thawed immediately in a 37° C. water bath. The working solutions of test compound and control compound were prepared in DMSO at 200 μM concentration, and the working solutions were spiked into plasma. The final concentration of compound was 1 μM. The final concentration of DMSO was 0.5%. Ketoconazole was used as positive control in the assay. The dialysis membranes were soaked in ultrapure water for 60 min to separate strips, then in 20% ethanol for 20 min, and then finally in dialysis buffer for 20 min. For equilibrium dialysis, each cell contained plasma sample (150 μL) and was dialyzed against an equal volume of dialysis buffer (PBS). The assay was performed in duplicate. The dialysis plate was sealed and incubated at 37° C. with 5% CO2 at 100 rpm for 6 h. At the end of incubation, samples (50 μL) from both buffer and plasma chambers were transferred to wells of a 96-well plate. Plasma (50 μL) was added to each buffer sample and an equal volume of PBS was added to the collected plasma sample. […] The concentrations of test compounds in the buffer and plasma chambers were determined from peak area ratios."}, "[3]": {"conditions": "male, mouse, microsomes, 1 μM"}, "[4]": {"assay": "Metabolic stability in liver microsomes", "conditions": "human liver microsomes"}, "[5]": {"assay": "Pharmacokinetics IV and PO in male CD1 mice"}, "HCT-116 (Colon)": {"system": "HCT-116 (Colon)", "conditions": "Colon HCT-116; reference 20; read-out: Cytotoxicity GI50; cited from earlier work"}, "UACC-62 (Melanoma)": {"system": "UACC-62 (Melanoma)", "conditions": "Melanoma UACC-62; reference 20; read-out: Cytotoxicity GI50; cited from earlier work"}, "OVCAR-3 (Ovarian)": {"system": "OVCAR-3 (Ovarian)", "conditions": "Ovarian OVCAR-3; reference 20; read-out: Cytotoxicity GI50; cited from earlier work"}, "SN12C (Renal)": {"system": "SN12C (Renal)", "conditions": "reference 20, read-out: Cytotoxicity GI50; cited from earlier work"}, "MCF7 (Breast)": {"system": "MCF7 (Breast)", "conditions": "reference 20, read-out: Cytotoxicity GI50; cited from earlier work"}, "[6]": {"conditions": "dogs, same time points; cited from earlier work"}, "[7]": {"assay": "Brain penetration and plasma/brain pharmacokinetics in CD1 mice", "conditions": "for Brain Conc / Brain/Plasma Conc Ratio / Plasma Conc: 20 mg/kg IV", "experimental": "Brain Penetration Studies. […] The concentrations were determined by LC-MS/MS with direct measurement of the plasma samples. The brain tissue was homogenized with water using a 3:1 ratio of water (mL) to brain (g) before determination of the concentrations (ng/mL) in the brain homogenates, and the homogenate values then were multiplied by a factor of 4 to obtain the brain concentrations (ng/g)."}, "[8]": {"conditions": "male, CD1, mouse, plasma, iv, 1 mg/kg"}, "[9]": {"conditions": "brain, IV 20 mg/kg, male CD1 mice"}, "[10]": {"conditions": "plasma, IV 20 mg/kg, male CD1 mice"}},
  "note": "Where two headings read alike, the source gives them in different places.",
  "data": [
    {"smiles": "COc1cc2c3c(n(CCCNCCO)c(=O)c2cc1OC)-c1nc2c(cc1C3=O)OCO2", "note": "[G105, 6-(3-((2-Hydroxyethyl)amino)propyl)-2,3-dimethoxy-5H-[1,3]dioxolo[4″,5″:5′,6′]pyrido[3′,2′:4,5]cyclopenta[1,2-c]isoquinoline-5,12(6H)-dione]", "values": [
      {"measurement": "MYC mRNA level", "setting": "[1]", "value": "significantly lowered MYC mRNA levels"},
      {"measurement": "% Stability at 6 hrs", "setting": "[2]", "value": 97.59, "unit": "%"},
      {"measurement": "Scaled-up CLint", "setting": "[3]", "value": 14.10, "unit": "mL/min/kg"},
      {"measurement": "T1/2", "setting": "[3]", "value": 7.1658, "unit": "h"},
      {"measurement": "in vitro CLint", "setting": "[3]", "value": 3.22, "unit": "μL/min/mg protein"},
      {"measurement": "Scaled-up CLint", "setting": "[4]", "value": 7.67, "unit": "mL/min/kg"},
      {"measurement": "in vitro CLint", "setting": "[4]", "value": 6.12, "unit": "μL/min/mg protein"},
      {"measurement": "T1/2", "setting": "[4]; 1 μM", "value": 3.7753, "unit": "h"},
      {"measurement": "AUCInf", "setting": "[5]; IV 1 mg/kg, male CD1 mice", "value": 155, "unit": "ng·h/mL"},
      {"measurement": "AUClast", "setting": "[5]; IV 1 mg/kg, male CD1 mice", "value": 151, "unit": "ng·h/mL"},
      {"measurement": "AUClast/D", "setting": "[5]; IV 1 mg/kg, male CD1 mice", "value": 151, "unit": "ng·h/mL"},
      {"measurement": "AUC—% Extrap—obs", "setting": "[5]; IV 1 mg/kg, male CD1 mice", "value": 2.61, "unit": "%"},
      {"measurement": "C0", "setting": "[5]; IV 1 mg/kg, male CD1 mice", "value": 177, "unit": "ng/mL"},
      {"measurement": "Cl_obs", "setting": "[5]; IV 1 mg/kg, male CD1 mice", "value": 107, "unit": "mL/min/kg"},
      {"measurement": "MRTInf—obs", "setting": "[5]; IV 1 mg/kg, male CD1 mice", "value": 1.49, "unit": "h"},
      {"measurement": "T1/2", "setting": "[5]; IV 1 mg/kg, male CD1 mice", "value": 1.84, "unit": "h"},
      {"measurement": "AUCInf", "setting": "[5]; PO 10 mg/kg, male CD1 mice", "value": 28.8, "unit": "ng·h/mL"},
      {"measurement": "AUClast", "setting": "[5]; PO 10 mg/kg, male CD1 mice", "value": 18.0, "unit": "ng·h/mL"},
      {"measurement": "AUClast/D", "setting": "[5]; PO 10 mg/kg, male CD1 mice", "value": 1.80, "unit": "ng·h/mL"},
      {"measurement": "AUC—% Extrap—obs", "setting": "[5]; PO 10 mg/kg, male CD1 mice", "value": 37.3, "unit": "%"},
      {"measurement": "Cmax", "setting": "[5]; PO 10 mg/kg, male CD1 mice", "value": 3.50, "unit": "ng/mL"},
      {"measurement": "F (fraction of the dose absorbed)", "setting": "[5]; PO 10 mg/kg, male CD1 mice", "value": 1.19, "unit": "%"},
      {"measurement": "MRTInf—obs", "setting": "[5]; PO 10 mg/kg, male CD1 mice", "value": 7.86, "unit": "h"},
      {"measurement": "T1/2", "setting": "[5]; PO 10 mg/kg, male CD1 mice", "value": 5.20, "unit": "h"},
      {"measurement": "Tmax", "setting": "[5]; PO 10 mg/kg, male CD1 mice", "value": 0.500, "unit": "h"},
      {"measurement": "Vd", "setting": "[5]; [8]", "value": 9.62, "unit": "L/kg"},
      {"measurement": "half-life", "setting": "[5]; [8]", "value": 1.84, "unit": "h"},
      {"measurement": "half-life", "setting": "[5]; male, CD1, mouse, plasma, po, 10 mg/kg", "value": 5.2, "unit": "h"}
    ]},
    {"smiles": "COc1cc2c3c(n(CCCNCCO)c(=O)c2cc1OC)-c1cc2c(cc1C3=O)OCO2", "note": "[LMP744]", "values": [
      {"measurement": "GI50", "setting": "HCT-116 (Colon)", "value": 0.1, "unit": "µM"},
      {"measurement": "GI50", "setting": "UACC-62 (Melanoma)", "value": 0.03, "unit": "µM"},
      {"measurement": "GI50", "setting": "OVCAR-3 (Ovarian)", "value": 0.35, "unit": "µM"},
      {"measurement": "GI50", "setting": "SN12C (Renal)", "value": "< 0.01", "unit": "µM"},
      {"measurement": "GI50", "setting": "MCF7 (Breast)", "value": 0.79, "unit": "µM"},
      {"measurement": "mean tumor concentration relative to plasma concentration", "setting": "[6]", "value": "at least 100 times"},
      {"measurement": "Brain Conc", "setting": "[7]; 0.25 h", "value": "941 ± 158", "unit": "nM"},
      {"measurement": "Brain/Plasma Conc Ratio", "setting": "[7]; 0.25 h", "value": 0.65},
      {"measurement": "Plasma Conc", "setting": "[7]; 0.25 h", "value": "1434 ± 123", "unit": "nM"},
      {"measurement": "Brain Conc", "setting": "[7]; 0.5 h", "value": "582 ± 380", "unit": "nM"},
      {"measurement": "Brain/Plasma Conc Ratio", "setting": "[7]; 0.5 h", "value": 0.34},
      {"measurement": "Plasma Conc", "setting": "[7]; 0.5 h", "value": "1712 ± 945", "unit": "nM"},
      {"measurement": "Brain Conc", "setting": "[7]; 1 h", "value": "802 ± 122", "unit": "nM"},
      {"measurement": "Brain/Plasma Conc Ratio", "setting": "[7]; 1 h", "value": 0.90},
      {"measurement": "Plasma Conc", "setting": "[7]; 1 h", "value": "894 ± 194", "unit": "nM"},
      {"measurement": "Brain Conc", "setting": "[7]; 2 h", "value": "743 ± 136", "unit": "nM"},
      {"measurement": "Brain/Plasma Conc Ratio", "setting": "[7]; 2 h", "value": 1.39},
      {"measurement": "Plasma Conc", "setting": "[7]; 2 h", "value": "535 ± 103", "unit": "nM"},
      {"measurement": "Brain Conc", "setting": "[7]; 4 h", "value": "857 ± 162", "unit": "nM"},
      {"measurement": "Brain/Plasma Conc Ratio", "setting": "[7]; 4 h", "value": 5.44},
      {"measurement": "Plasma Conc", "setting": "[7]; 4 h", "value": "154 ± 14", "unit": "nM"},
      {"measurement": "Brain Conc", "setting": "[7]; 8 h", "value": "759 ± 188", "unit": "nM"},
      {"measurement": "Plasma Conc", "setting": "[7]; 8 h", "value": "86 ± 31", "unit": "nM"},
      {"measurement": "Brain Conc", "setting": "[7]; 24 h", "value": "524 ± 166", "unit": "nM"},
      {"measurement": "Brain/Plasma Conc Ratio", "setting": "[7]; 24 h", "value": 27.1},
      {"measurement": "Plasma Conc", "setting": "[7]; 24 h", "value": "23 ± 5", "unit": "nM"},
      {"measurement": "AUClast", "setting": "[7]; [9]", "value": 7606, "unit": "ng·h/g"},
      {"measurement": "AUC—% Extrap—obs", "setting": "[7]; [9]", "value": 72, "unit": "%"},
      {"measurement": "Cmax", "setting": "[7]; [9]", "value": 413, "unit": "ng/g"},
      {"measurement": "Tmax", "setting": "[7]; [9]", "value": 0.25, "unit": "h"},
      {"measurement": "AUCInf", "setting": "[7]; [10]", "value": 2132, "unit": "ng·h/mL"},
      {"measurement": "AUClast", "setting": "[7]; [10]", "value": 2022, "unit": "ng·h/mL"},
      {"measurement": "AUC—% Extrap—obs", "setting": "[7]; [10]", "value": 5.16, "unit": "%"},
      {"measurement": "C0", "setting": "[7]; [10]", "value": 1943, "unit": "ng/mL"},
      {"measurement": "Cl_obs", "setting": "[7]; [10]", "value": 156, "unit": "mL/min/kg"},
      {"measurement": "MRTInf—obs", "setting": "[7]; [10]", "value": 5.14, "unit": "h"},
      {"measurement": "T1/2", "setting": "[7]; [10]", "value": 7.48, "unit": "h"},
      {"measurement": "Vss—obs", "setting": "[7]; [10]", "value": 48.2, "unit": "L/kg"}
    ]}
  ]
}
